# Measured values from BindingDB's records for doi:10.1016/j.bmc.2008.07.022 (Universidade Federal De Lavras-Ufla, 2008).
# Biological target: cGMP-specific 3',5'-cyclic phosphodiesterase (Homo sapiens, UniProt O76074)
# Assay: Inhibition of PDE5
row,Compound,IC50
1,"CCCCn1c(O)c2n(c1=O)[C@H](c1ccoc1)c1[nH]c3ccccc3c1C2 [(3aR,10R)-2-Butyl-10-furan-3-yl-3a,4,9,10-tetrahydro-2,9,10a-triaza-cyclopenta[b]fluorene-1,3-dione]",100 nM
2,"CCCCn1c(O)c2n(c1=O)[C@H](c1ccsc1)c1[nH]c3ccccc3c1C2 [Cis-2-Butyl-10-thiophen-3-yl-3a,4,9,10-tetrahydro-2,9,10a-triaza-cyclopenta[b]fluorene-1,3-dione]",30 nM
3,CCOc1ccc([C@H]2c3[nH]c4ccccc4c3Cc3c(O)n(Cc4cccnc4)c(=O)n32)cc1,20 nM
4,CCOc1ccc([C@H]2c3[nH]c4ccccc4c3Cc3c(O)[nH]c(=O)n32)cc1,20 nM

# Further compounds by falling IC50, results first:
row,IC50,Compound
1,100 nM,CCOc1ccc([C@H]2c3[nH]c4ccccc4c3Cc3c(O)n(CCn4cccc4)c(=O)n32)cc1
2,30 nM,CCOc1ccc([C@H]2c3[nH]c4ccccc4c3Cc3c(O)n(CCN(C)C)c(=O)n32)cc1
